The text below walks through data of ChEMBL document CHEMBL4417631, “Oral peptide inhibitors of interleukin-23 receptor and their use to treat inflammatory bowel diseases” (2017).

Series [1] deals with T1, Interleukin-23 receptor (Mus musculus, UniProt Q8K4B4).
T1 sequence (Q8K4B4 whole entry): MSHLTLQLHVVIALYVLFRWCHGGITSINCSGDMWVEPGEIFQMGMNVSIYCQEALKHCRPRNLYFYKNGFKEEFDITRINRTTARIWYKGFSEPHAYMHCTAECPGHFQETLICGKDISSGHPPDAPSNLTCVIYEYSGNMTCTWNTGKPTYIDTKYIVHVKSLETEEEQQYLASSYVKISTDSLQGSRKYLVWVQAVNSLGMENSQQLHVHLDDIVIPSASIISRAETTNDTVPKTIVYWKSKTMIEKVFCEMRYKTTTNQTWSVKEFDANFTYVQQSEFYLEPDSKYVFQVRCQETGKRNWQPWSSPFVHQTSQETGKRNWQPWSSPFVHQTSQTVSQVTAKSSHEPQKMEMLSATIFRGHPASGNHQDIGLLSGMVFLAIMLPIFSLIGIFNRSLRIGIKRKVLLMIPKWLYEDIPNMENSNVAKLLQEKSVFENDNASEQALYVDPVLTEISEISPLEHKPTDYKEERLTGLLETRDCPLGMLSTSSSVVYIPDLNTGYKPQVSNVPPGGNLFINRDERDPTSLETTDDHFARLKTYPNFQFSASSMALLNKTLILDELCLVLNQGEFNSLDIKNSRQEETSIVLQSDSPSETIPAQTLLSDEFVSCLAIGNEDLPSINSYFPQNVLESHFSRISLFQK
Briefly: Inhibition of interleukin-23 binding to mouse interleukin-23 receptor incubated for 2 hrs by competitive binding ELISA.

Series [2] has as its target T2, Interleukin-23 receptor (Homo sapiens, UniProt Q5VWK5).
T2 sequence (Q5VWK5 whole entry): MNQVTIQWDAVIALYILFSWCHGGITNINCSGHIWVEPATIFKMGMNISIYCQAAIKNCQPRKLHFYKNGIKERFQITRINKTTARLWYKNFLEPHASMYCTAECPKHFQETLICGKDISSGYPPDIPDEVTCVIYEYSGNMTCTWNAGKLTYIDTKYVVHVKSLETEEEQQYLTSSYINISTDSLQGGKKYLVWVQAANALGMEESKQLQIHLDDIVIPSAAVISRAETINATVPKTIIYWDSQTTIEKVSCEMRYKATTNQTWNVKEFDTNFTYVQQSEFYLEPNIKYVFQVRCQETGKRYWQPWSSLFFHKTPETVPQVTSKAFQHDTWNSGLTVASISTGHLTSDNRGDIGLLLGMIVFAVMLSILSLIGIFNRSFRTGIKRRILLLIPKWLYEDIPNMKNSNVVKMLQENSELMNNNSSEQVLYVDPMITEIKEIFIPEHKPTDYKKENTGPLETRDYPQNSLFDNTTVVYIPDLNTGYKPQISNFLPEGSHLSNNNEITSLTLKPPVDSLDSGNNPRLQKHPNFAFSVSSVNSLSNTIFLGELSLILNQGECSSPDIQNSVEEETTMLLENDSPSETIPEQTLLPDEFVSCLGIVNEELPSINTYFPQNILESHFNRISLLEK
In words: Inhibition of interleukin-23 binding to human interleukin-23 receptor incubated for 2 hrs by competitive binding ELISA.

Series [3] is described as follows: Inhibition of interleukin-23 binding to rat interleukin-23 receptor incubated for 2 hrs by competitive binding ELISA.
Series [4] has as its system Rattus norvegicus. In words: Anti-colitis activity in Sprague-Dawley rat model of DSS-induced colitis assessed as improvement in hematocrit scores level at 30 mg/kg, ip dosed 3 times per day. Type of series: functional, organism-based.
The test system of series [5] is Rattus norvegicus. Briefly: Anti-colitis activity in Sprague-Dawley rat model of DSS-induced colitis assessed as reduction in disease activity index at 30 mg/kg, po dosed 3 times per day. Type of series: functional.
For series [6], the system named is Rattus norvegicus. Briefly: Anti-colitis activity in Sprague-Dawley rat model of DSS-induced colitis assessed as improvement in stool consistency scores level at 30 mg/kg, po dosed 3 times per day. The series is classed as functional, organism-based.
The test system of a further series is PBMC. In words: Inhibition of IL12-stimulated IFNgamma production in PHA-activated human PBMC at 0.0001 to 100 uM by ELISA. Type of series: functional, cell-based. On the technique in general: In an ELISA, binding on a coated surface is turned into a signal by an enzyme label.
Series [7] relates to Rattus norvegicus. Briefly: Anti-colitis activity in Sprague-Dawley rat model of DSS-induced colitis assessed as change in body weight at 30 mg/kg, po dosed 3 times per day (-6.39 +/- 1.11%). The series is classed as functional.
Series [8] deals with Rattus norvegicus. Briefly: Anti-colitis activity in Sprague-Dawley rat model of DSS-induced colitis assessed as colon weight/colon length ratio at 30 mg/kg, po dosed 3 times per day (124.36 +/- 17.11 g/cm). Type of series: functional.
Series [9] deals with Rattus norvegicus. Briefly: Anti-colitis activity in Sprague-Dawley rat model of DSS-induced colitis assessed as reduction in colon macroscopic scores at 30 mg/kg, po dosed 3 times per day. The series is classed as functional, organism-based.
The test system of series [10] is Rattus norvegicus. Briefly: Anti-colitis activity in Sprague-Dawley rat model of DSS-induced colitis assessed as reduction in colon macroscopic scores at 30 mg/kg, ip dosed 3 times per day. The series is classed as functional, organism-based.
The subject of series [11] is Rattus norvegicus. In words: Anti-colitis activity in Sprague-Dawley rat model of DSS-induced colitis assessed as improvement in hematocrit scores level at 30 mg/kg, po dosed 3 times per day. The series is classed as functional, organism-based.
For series [12], the system named is Rattus norvegicus. Briefly: Anti-colitis activity in Sprague-Dawley rat model of DSS-induced colitis assessed as improvement in stool consistency scores level at 30 mg/kg, ip dosed 3 times per day. The series is classed as functional, organism-based.
Series [13] deals with T2, Interleukin-23 receptor. Briefly: Inhibition of interleukin-23 receptor in human DB cells assessed as reduction in IL-23-stimulated STAT3 phosphorylation incubated for 30 mins by HTRF assay. Type of series: cell-based. (TR-FRET usually uses a lanthanide donor and a delayed reading to cut background.)
The nature of series [14]: Inhibition of interleukin-23 binding to cynomolgus monkey interleukin-23 receptor incubated for 2 hrs by competitive binding ELISA. Also on record: species or system Macaca fascicularis.
In series [15] the test system is Rattus norvegicus. Briefly: Anti-colitis activity in Sprague-Dawley rat model of DSS-induced colitis assessed as reduction in disease activity index at 100 mg/kg, po qd for 9 days. Type of series: functional, organism-based.
Series [16] is described as follows: Half life in simulated intestinal fluid at 20 uM by LC-MS/MS analysis. Type of series: ADME.
The nature of series [17]: Half life in simulated gastric fluid at 20 uM by LC-MS/MS analysis. Type of series: ADME.
A short description of series [18]: Half life in DTT at 50 uM up up to 120 mins by reverse phase HPLC and UV detection based assay. Type of series: physicochemical.

Activity calls are given as the source filed them. The calls are words filed in the database; no cut-off is given here. Where a SMILES comes first, the peptide text is derived from it.

Consider `N=C(N)NCCC[C@H](NC(=O)[C@@H](N)CS)C(=O)N[C@@H](CC(=O)O)C(=O)N[C@@H](Cc1c[nH]c2ccccc12)C(=O)N[C@@H](CCC(N)=O)C(=O)N[C@@H](CS)C(=O)N[C@@H](Cc1ccc(O)cc1)C(=O)N[C@@H](Cc1c[nH]c2ccccc12)C(=O)N[C@@H](Cc1cnc[nH]1)C(=O)N[C@@H](CCCCN)C(=O)N[C@@H](Cc1ccccc1)C(=O)NCC(N)=O` (H-CRDWQCYWHKFG-NH2), for which the IC50 on Interleukin-23 receptor [1] is over 25 µM; on Interleukin-23 receptor [2] it was 0.251 to 1 µM; in [3] it was 0.251 to 1 µM.

For `COc1ccc(C[C@H](NC(=O)[C@H]2NC(=O)[C@H](CCC(N)=O)NC(=O)[C@H](Cc3c[nH]c4ccccc34)NC(=O)[C@H]([C@@H](C)O)NC(=O)[C@H](CCC(N)=O)NC(=O)[C@@H](NC(C)=O)C(C)(C)SSC2(C)C)C(=O)N[C@@H](Cc2ccc3ccccc3c2)C(=O)N[C@@](C)(CCCCN)C(=O)N[C@@H](CCC(=O)O)C(=O)N[C@@H](CC(N)=O)C(=O)NCC(N)=O)cc1`, the outcome in the series with Rattus norvegicus [4], in the series with Rattus norvegicus [6], in the series on Rattus norvegicus [9], in the series with Rattus norvegicus [10], in the series on Rattus norvegicus [11] and in the series on Rattus norvegicus [12] was Active. Moreover, the Activity_index in the series on Rattus norvegicus [5] is 0.61. Further, the inhibition entry in the series on PBMC was “inactive”. In addition, the Activity in the series on Rattus norvegicus [7] was found to be 0.13%. The Ratio in the series on Rattus norvegicus [8] turned out to be 97.36 g/cm.

As to `CC(=O)N[C@@H](CS)C(=O)N[C@@H](CCC(N)=O)C(=O)N[C@H](C(=O)N[C@@H](Cc1c[nH]c2ccccc12)C(=O)N[C@@H](CCC(N)=O)C(=O)N[C@@H](CS)C(=O)N[C@@H](Cc1ccc(O)cc1)C(=O)N[C@@H](Cc1c[nH]c2ccccc12)C(=O)N[C@@H](CCCNC(N)=O)C(=O)N[C@@H](CN)C(=O)N[C@@H](Cc1ccccc1)C(=O)NCC(=O)NCCOCC(=O)N[C@H](CCCCN)C(N)=O)[C@@H](C)O`, the IC50 was over 25 µM at Interleukin-23 receptor [1]; 1 to 10 µM at Interleukin-23 receptor [13]; 0.025 to 10 µM at Interleukin-23 receptor [2]; 1 to 10 µM in series [14]; 1 to 10 µM in [3].

In the case of `O=C(O)c1cc(/N=N/c2ccc(S(=O)(=O)Nc3ccccn3)cc2)ccc1O`, in the series on Rattus norvegicus [15], the outcome was Active.

For `CC(C)[C@H](NC(=O)[C@H](Cc1c[nH]c2ccccc12)NC(=O)[C@H](CC(=O)O)NC(=O)[C@H](C)NC(=O)[C@@H](N)CS)C(=O)N[C@@H](CS)C(=O)N[C@@H](Cc1ccc(O)cc1)C(=O)N[C@@H](Cc1c[nH]c2ccccc12)C(=O)N[C@@H](Cc1cnc[nH]1)C(=O)N[C@H](C(=O)N[C@@H](Cc1ccccc1)C(=O)NCC(N)=O)[C@@H](C)O`, the concentration for half-maximal inhibition (IC50) on Interleukin-23 receptor [1] was over 25 µM; on Interleukin-23 receptor [13] it was 0.1 to 1 µM; at Interleukin-23 receptor [2], 0.1 to 1 µM; in [14], 1 to 10 µM; in [3], 0.251 to 1 µM.

Turning to `COc1ccc(C[C@H](NC(=O)[C@@H](NC(=O)[C@H](CCC(N)=O)NC(=O)[C@H](Cc2c[nH]c3ccccc23)NC(=O)[C@@H](NC(=O)[C@H](CCC(N)=O)NC(=O)[C@@H](NC(C)=O)C(C)(C)S)[C@@H](C)O)C(C)(C)S)C(=O)N[C@@H](Cc2ccc3ccccc3c2)C(=O)N[C@@](C)(CCCCN)C(=O)N[C@@H](CCC(=O)O)C(=O)N[C@@H](CC(N)=O)C(=O)NCC(N)=O)cc1`, the values for the half-life at 20 µM in [16] and in series [17] were 3 to 6 h and 2 to 3 h, respectively. Besides, the IC50 on Interleukin-23 receptor [13] was in the range of 0.01 to 0.025 µM; at Interleukin-23 receptor [2] it was 0.025 to 0.1 µM; in [3], 0.1 to 1 µM. Moreover, the half-life at 50 µM in [18] is over 2 h.

What is called IC50 is the point on the concentration scale where inhibition reaches its midpoint. For orientation: half-life means the time in which the quantity being followed falls by half.
